{"source": "patent US20250360167A1", "about": "(Keryx Biopharmaceuticals, Inc., priority 2013, published 2025)", "assay": "BET active surface area", "format": "physicochemical", "description": "BET theory explains the physical adsorption of gas molecules onto a solid surface. The theory serves as the basis for the measurement of the specific surface area of a material. This theory allows the calculation of surface areas of materials in a very accurate manner and is thus capable of distinguishing differences between separate preparations of what would otherwise appear to be the same material. For example, activated carbon is a form of carbon that has been processed to make it extremely porous and thus to have a very large surface area. Activated carbon has been experimentally determined, using calculations derived from BET theory, to have a surface area of around 3000 m^2 g^−1.", "key": {"[1]": {"conditions": "Table 1, one value given per pair of samples"}}}
{"smiles": "O=C([O-])CC(O)(CC(=O)[O-])C(=O)[O-].[Fe+3]", "note": "[RFS-12-1]", "values": [{"measurement": "BET Active Surface Area", "setting": "[1]", "value": 0.61}, {"measurement": "BET Active Surface Area", "setting": "Tables 2 and 3", "value": 0.61, "unit": "m^2/g"}]}
{"smiles": "O=C([O-])CC(O)(CC(=O)[O-])C(=O)[O-].[Fe+3]", "note": "[STM-182-1]", "values": [{"measurement": "BET Active Surface Area", "setting": "[1]", "value": 19.85}]}
